Test results as given in patent US9770452B2, “Quinoxaline derivatives as GPR6 modulators” (Takeda Pharmaceutical Company Limited, priority 2012, dated 2017).

Molecular target: T1, GPR6 receptor (Homo sapiens, UniProt P46095)
T1 construct: expressed in transfected cells
Test: Inhibition of cAMP Activity of GPR6 In Vitro Assay (CHO-K1 cells, HTRF cAMP)
Type: cell-based
Settings: compounds of Compound Table 1; inhibition of constitutive cAMP activity of GPR6 expressed in CHO-K1 cells; approximate IC50; read-out: IC50
Description: Inhibition of cAMP Activity of GPR6 In Vitro Assay
This cell based assay measures the ability of compounds to inhibit the constitutive cAMP activity of GPR6 receptor expressed in CHO-K1 cells. CHO cells were stably expressed with GPR6 receptor, whose expression is controlled by a tetracycline inducable element. The cells were cultured in medium containing F12K, 10% FBS, 1% Penn/Strep, 200 ug/mL Hygromycin. GPR6 receptor expression was induced for 20 hrs with 1 μg/ml doxycycline (sigma D9891) in growth media. After addition of doxycycline cells were plated at a density of 250-500 cells per well in half-volume black clear bottom plates (Costar) and place in an incubator (37°, 5% C(O)2) for 20 hours prior to cAMP assays.
Culture media was removed from cells and they were washed with 50 μL of Ringer's Buffer (MgCl2 0.047 mg/mL, NaH2PO4 0.18 mg/mL, Na2HPO4 0.1 mg/mL, KCl 0.34 mg/mL, NaHC(O)3 1.26 mg/mL, D-glucose 1.8 mg/mL, NaCl 7 mg/mL; pH=7.4). Compounds suspended in DMSO were diluted in Ringer's Buffer containing 0.5% fatty acid free BSA and incubated on cells for 45 min at […] and 5% C(O)2. After incubation cells were incubated for 10 min at room temp with Eu-cAMP tracer solution from a Perkin Elmer Lance HTRF UltracAMP assay kit (TRF0264). Then ULight™-anti-cAMP solution from the Lance HTRF kit was added and incubated on a shaker at room temp for 1 hour prior to HTRF detection in a BMG PolarStar Omega.
IC50 curves were generated with a four-parameter logistic equation using GraphPad Prism 5.03.

T1 sequence (P46095 whole entry): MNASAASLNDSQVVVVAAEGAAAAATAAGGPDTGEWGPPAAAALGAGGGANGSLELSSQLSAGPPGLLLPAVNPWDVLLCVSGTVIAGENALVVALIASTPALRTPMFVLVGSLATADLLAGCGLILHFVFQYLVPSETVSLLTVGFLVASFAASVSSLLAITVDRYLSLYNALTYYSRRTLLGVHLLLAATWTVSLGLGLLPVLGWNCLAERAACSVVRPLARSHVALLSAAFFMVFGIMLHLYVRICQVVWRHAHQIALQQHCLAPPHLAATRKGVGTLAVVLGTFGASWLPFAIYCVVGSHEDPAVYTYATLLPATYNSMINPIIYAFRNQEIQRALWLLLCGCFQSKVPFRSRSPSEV

Substance	IC50 [nM]
3-(4-(2,5-difluorobenzoyl)piperidin-1-yl)-2-(isopropylamino)pyrido[3,4-b]pyrazine-7-carbonitrile, 2,2,2-trifluoroacetic acid salt [Cpd 631]	6
3-(4-(2,5-difluorobenzyl)piperazin-1-yl)-2-((3,3,3-trifluoropropyl)amino)quinoxaline-6-carbonitrile, 2,2,2-trifluoroacetic acid salt [Cpd 400]	390
3-(4-(2,5-difluorobenzyl)piperazin-1-yl)-2-((6-methoxypyridin-3-yl)amino)quinoxaline-6-carbonitrile, 2,2,2-trifluoroacetic acid salt [Cpd 333]	97
3-(4-(2-fluoro-4-methoxybenzyl)piperidin-1-yl)-2-(isopropylamino)pyrido[3,4-b]pyrazine-7-carbonitrile, 2,2,2-trifluoroacetic acid salt [Cpd 636]	16
3-(4-(2-fluoro-4-methoxybenzyl)piperidin-1-yl)-N-isopropylpyrazino[2,3-d]pyridazin-2-amine, 2,2,2-trifluoroacetic acid salt [Cpd 642]	54
3-(4-(2-fluoro-4-methoxyphenoxy)piperidin-1-yl)-2-(isopropylamino)pyrido[3,4-b]pyrazine-7-carbonitrile, 2,2,2-trifluoroacetic acid salt [Cpd 628]	276
3-(4-(2-fluoro-4-methoxyphenoxy)piperidin-1-yl)-N-isopropylpyrido[3,4-b]pyrazin-2-amine, 2,2,2-trifluoroacetic acid salt [Cpd 616]	939
3-(4-(2-fluoro-4-methoxyphenoxy)piperidin-1-yl)-N-isopropylpyrido[3,4-b]pyrazin-2-amine, 2,2,2-trifluoroacetic acid salt [Cpd 617]	54
3-(4-(3-bromo-4-fluorobenzoyl)piperazin-1-yl)-2-(cyclopropylamino)quinoxaline-6-carbonitrile, 2,2,2-trifluoroacetic acid salt [Cpd 256]	380
3-(4-(3-chloro-4-fluorobenzyl)piperazin-1-yl)-N-cyclopropylpyrido[3,4-b]pyrazin-2-amine, 2,2,2-trifluoroacetic acid salt [Cpd 315]	50
3-(4-(3-chlorophenoxy)piperidin-1-yl)-N-cyclopropylpyrido[3,4-b]pyrazin-2-amine, 2,2,2-trifluoroacetic acid salt [Cpd 426]	27
3-(4-(4-chloro-2-fluorophenoxy)piperidin-1-yl)-2-(cyclopropylamino)quinoxaline-6-carbonitrile, 2,2,2-trifluoroacetic acid salt [Cpd 465]	11
3-(4-(4-chloro-2-fluorophenoxy)piperidin-1-yl)-2-(isopropylamino)-N,N-dimethylpyrido[3,4-b]pyrazine-7-carboxamide, 2,2,2-trifluoroacetic acid salt [Cpd 630]	7
3-(4-(4-chloro-2-fluorophenoxy)piperidin-1-yl)-N-isopropylpyrazino[2,3-d]pyridazin-2-amine, 2,2,2-trifluoroacetic acid salt [Cpd 643]	15
3-(4-(4-chloro-3-methylbenzyl)piperazin-1-yl)-N-cyclopropylquinoxalin-2-amine, 2,2,2-trifluoroacetic acid salt [Cpd 194]	3640
3-(4-(4-chlorobenzyl)piperidin-1-yl)-N-cyclopropylpyrido[3,4-b]pyrazin-2-amine, 2,2,2-trifluoroacetic acid salt [Cpd 424]	310
3-(4-(5-(tert-butyl)-2-methoxybenzyl)piperazin-1-yl)-N-cyclopropylpyrido[3,4-b]pyrazin-2-amine, 2,2,2-trifluoroacetic acid salt [Cpd 306]	380
3-(4-(5-chloro-2-fluorobenzoyl)piperidin-1-yl)-2-(cyclopropylamino)quinoxaline-6-carbonitrile, 2,2,2-trifluoroacetic acid salt [Cpd 469]	90
3-(4-(5-cyano-2-(dimethylcarbamoyl)benzoyl)piperidin-1-yl)-2-(cyclopropylamino)-N,N-dimethylpyrido[3,4-b]pyrazine-7-carboxamide [Cpd 596]	26
3-(4-((2,4-difluorophenyl)fluoromethyl)piperidin-1-yl)-N-(2-methoxyethyl)pyrido[3,4-b]pyrazin-2-amine, 2,2,2-trifluoroacetic acid salt [Cpd 520]	30

Substance	IC50 [nM]
3-(4-((2,4-difluorophenyl)fluoromethyl)piperidin-1-yl)-N-isopropylpyrido[3,4-b]pyrazin-2-amine, 2,2,2-trifluoroacetic acid salt [Cpd 621]	21
3-(4-((2-chloro-4-(trifluoromethyl)phenyl)sulfonyl)piperazin-1-yl)-2-(cyclopropylamino)quinoxaline-6-carbonitrile, 2,2,2-trifluoroacetic acid salt [Cpd 330]	29
3-(4-((2-cyanophenyl)sulfonyl)piperazin-1-yl)-2-(cyclopropylamino)quinoxaline-6-carbonitrile, 2,2,2-trifluoroacetic acid salt [Cpd 252]	2540
3-(4-((3-chloro-5-fluoro-2-methylphenyl)sulfonyl)piperazin-1-yl)-2-(cyclopropylamino)quinoxaline-6-carbonitrile, 2,2,2-trifluoroacetic acid salt [Cpd 282]	4290
3-(4-((4-(tert-butyl)phenyl)sulfonyl)piperazin-1-yl)-2-(cyclopropylamino)quinoxaline-6-carbonitrile, 2,2,2-trifluoroacetic acid salt [Cpd 280]	450
3-(4-((4-bromo-2-fluorophenyl)sulfonyl)piperazin-1-yl)-2-(cyclopropylamino)quinoxaline-6-carbonitrile, 2,2,2-trifluoroacetic acid salt [Cpd 285]	1360
3-(4-((4-bromophenyl)sulfonyl)piperazin-1-yl)-2-(cyclopropylamino)quinoxaline-6-carbonitrile [Cpd 251]	4340
3-(4-((4-chloro-2,5-dimethylphenyl)sulfonyl)piperazin-1-yl)-2-(cyclopropylamino)quinoxaline-6-carbonitrile, 2,2,2-trifluoroacetic acid salt [Cpd 281]	960
3-(4-((4-chloro-2-oxopyridin-1(2H)-yl)methyl)piperidin-1-yl)-2-(cyclopropylamino)quinoxaline-6-carbonitrile [Cpd 526]	670
3-(4-((4-chlorophenyl)sulfonyl)piperazin-1-yl)-2-(cyclopropylamino)quinoxaline-6-carbonitrile, 2,2,2-trifluoroacetic acid salt [Cpd 227]	3290
3-(4-((5-chloro-2-fluorophenyl)difluoromethyl)piperidin-1-yl)-N-cyclopropyl-5-methylpyrido[3,4-b]pyrazin-2-amine [Cpd 536]	930
3-(4-((5-chloro-2-fluorophenyl)difluoromethyl)piperidin-1-yl)-N-cyclopropylpyrido[3,4-b]pyrazin-2-amine [Cpd 539]	770
3-(4-((5-chloro-2-fluorophenyl)fluoromethyl)piperidin-1-yl)-N-cyclopropylpyrido[3,4-b]pyrazin-2-amine [Cpd 452]	21
3-(cyclopropylamino)-2-(4-(2,5-dichlorobenzyl)piperazin-1-yl)quinoxaline-5-carbonitrile, 2,2,2-trifluoroacetic acid salt [Cpd 248]	1850
3-(cyclopropylamino)-2-(4-((2,5-difluorophenyl)fluoromethyl)piperidin-1-yl)quinoxaline-6-carbonitrile, 2,2,2-trifluoroacetic acid salt [Cpd 484]	29
3-fluoro-4-((1-(3-(isopropylamino)pyrazino[2,3-d]pyridazin-2-yl)piperidin-4-yl)oxy)benzonitrile, 2,2,2-trifluoroacetic acid salt [Cpd 639]	30
3-fluoro-4-((1-(3-(isopropylamino)pyrazino[2,3-d]pyridazin-2-yl)piperidin-4-yl)oxy)phenol, 2,2,2-trifluoroacetic acid salt [Cpd 648]	65
4-((1-(2-(cyclopropylamino)pyrido[3,4-b]pyrazin-3-yl)piperidin-4-yl)oxy)-3-fluorophenol, 2,2,2-trifluoroacetic acid salt [Cpd 615]	88
4-((1-(2-(cyclopropylamino)pyrido[3,4-b]pyrazin-3-yl)piperidin-4-yl)oxy)-N,N-dimethylbenzamide, 2,2,2-trifluoroacetic acid salt [Cpd 588]	2740
4-((1-(3-(cyclopropylamino)pyrazino[2,3-d]pyridazin-2-yl)piperidin-4-yl)oxy)-3-fluorophenol [Cpd 623]	39
